Data taken from PubChem BioAssay (NCI).
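In this assay, cells in 96-well plates receive the compound at five concentrations for 48 hours. Endpoints are linearly interpolated between the surrounding concentrations. The concentration for 50% growth inhibition is given as GI50. TGI is the concentration that stops growth completely.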

Assays:
Experiment in all cases: NCI tumour cell line growth inhibition, 48 h
[1] = tested on: A549 NSCLC
[2] = tested on: CCRF-CEM leukemia
[3] = tested on: KM12 colon
[4] = tested on: NCI-H23 lung
[5] = tested on: RPMI-8226 leukemia
[6] = tested on: SK-MEL-2 melanoma
[7] = tested on: SK-MEL-28 melanoma
[8] = tested on: SR leukemia
[9] = tested on: UO-31 renal
[10] = tested on: HT29 colon

Structure (SMILES) | TGI [1] | TGI [2] | TGI [3] | TGI [4] | TGI [5] | TGI [6] | TGI [7] | TGI [8] | TGI [9] | GI50 [1] | GI50 [2] | GI50 [10] | TGI [10] | GI50 [3] | GI50 [4] | GI50 [5] | GI50 [6] | GI50 [7] | GI50 [8] | GI50 [9]
CCOC(=O)/C(=C/c1ccc(C(=O)OC)cc1)N(CC)CC | > 100 µM | 93.7 µM | > 100 µM | > 100 µM | > 100 µM | > 100 µM | > 100 µM | > 100 µM | > 100 µM |  |  |  |  |  |  |  |  |  |  | 
Cc1cc2c(cc1Cl)S/C(=C/C(=O)O)C(Nc1ccc3ncsc3c1)=NS2(=O)=O | > 62 µM | > 53.5 µM | > 48 µM | > 22.5 µM | 19.3 µM | > 61.3 µM | > 60.6 µM | 77.9 µM | > 50.7 µM | > 25 µM | 7.22 µM | 19.4 µM | > 100 µM | 27.5 µM | > 14.3 µM | 1.68 µM | > 29.3 µM | 32.4 µM | 14.6 µM | 14.8 µM
COc1cc(/C=C/C(=O)/C=C/c2ccc(-n3ccnc3C)cc2)ccc1O | > 100 µM | > 100 µM | 4.25 µM | 5.5 µM | 6.1 µM | 84.2 µM | 5 µM | > 100 µM | 3.15 µM | 3.22 µM | 4.07 µM | 1.95 µM | 3.9 µM | 2.07 µM | 2.08 µM | 1.84 µM | 26 µM | 2.18 µM | 2.55 µM | 1.51 µM
COc1ccc(-c2nc(-c3ccc(C)cc3)cn3ccnc23)cc1 | > 50 µM | > 50 µM | > 50 µM | > 50 µM | > 50 µM | > 50 µM |  | > 50 µM | > 50 µM | 3.97 µM | 5.47 µM |  |  | 3.25 µM | > 50 µM | 2.89 µM | 20.8 µM |  | 0.3 µM | 12 µM
CNC(=O)c1c(NC(=O)c2ccc(C(C)(C)C)cc2)sc2c1CCC(=O)C2 | 1.6 µM | > 20.1 µM | 1.34 µM | 1.24 µM | 0.511 µM | 1.96 µM | 1.87 µM |  | 0.819 µM | 0.3 µM | 0.0886 µM | 0.263 µM | 1.56 µM | 0.313 µM | 0.266 µM | 0.0553 µM | 0.508 µM | 0.506 µM | 0.107 µM | 0.214 µM
COc1ncc(Nc2ncc([C@@H](C)N3CCN(S(C)(=O)=O)CC3)cc2-c2nc(C)nc(N)n2)cc1F | > 40.7 µM | > 54.1 µM | > 100 µM | > 100 µM | > 100 µM | > 69.6 µM | > 36.6 µM | > 61.5 µM | 1.89 µM | 0.186 µM | 0.145 µM | 0.0355 µM | > 100 µM | 1.33 µM | 3.86 µM | 7.13 µM | 2.05 µM | 0.0534 µM | 4.83 µM | < 0.0114 µM
CN(c1ccc(C(=O)c2ccc(N(C)S(C)(=O)=O)cc2)cc1)S(C)(=O)=O | > 100 µM | > 100 µM | > 100 µM | > 100 µM | > 100 µM | > 100 µM | > 100 µM | > 100 µM | > 100 µM |  |  |  | > 100 µM |  |  |  |  |  |  | 
OC(COC(c1ccccc1)(c1ccccc1)c1ccccc1)C(O)CC1SCCS1 (stereo not given) |  | > 100 µM | 29.8 µM | 40 µM | 34.2 µM | 34.3 µM | 48.8 µM | 0.953 µM | 24.5 µM |  |  |  | 34.3 µM |  |  |  |  |  |  | 
COc1ccc(Cc2coc3ccccc3c2=O)cc1OC | > 100 µM | > 100 µM |  | > 100 µM | > 100 µM | > 100 µM | > 100 µM | > 100 µM | > 100 µM |  |  |  | > 100 µM |  |  |  |  |  |  | 
O=S(=O)(O)c1cc(O)c(N=Nc2ccc(O)cc2O)c2ccccc12 | > 100 µM | > 100 µM | > 100 µM |  | > 100 µM | > 100 µM | > 100 µM | > 100 µM |  |  |  |  | > 100 µM |  |  |  |  |  |  | 
Cc1cccc2nc3ccccc3c(Nc3ccc(NS(C)(=O)=O)cc3)c12 | 12.4 µM | 12.2 µM | 22.4 µM |  | 9.19 µM | 31.8 µM | 29.6 µM | 6.7 µM | 12.4 µM | 1.88 µM | 3.26 µM | 5.18 µM | 24.8 µM | 6.19 µM |  | 2.68 µM | 16.9 µM | 13.8 µM | 1.51 µM | 2.61 µM
c1ccc(C2OC3(CCC[C@H]4C[C@H]43)O[C@H]2c2ccccc2)cc1 (stereo not given in full) | > 100 µM | 49.9 µM | > 100 µM | > 100 µM | 96.9 µM | 39.6 µM |  | 54.2 µM | > 100 µM |  |  |  | > 100 µM |  |  |  |  |  |  | 
ClC/C=C/COC1CCCCO1 (stereo not given) | > 100 µM | > 100 µM | > 100 µM | > 100 µM | > 100 µM | > 100 µM |  | 54.2 µM | > 100 µM |  |  |  | > 100 µM |  |  |  |  |  |  | 
Cc1cc2c(C)n(Cc3ccccc3Cl)nc2c(C(=O)O)c1C | > 100 µM | > 100 µM |  | > 100 µM | > 100 µM | > 100 µM | > 100 µM | > 100 µM | > 100 µM |  |  |  | > 100 µM |  |  |  |  |  |  | 
